We go through 4 molecules from patent US20230063794A1, “STAPLED TRIAZOLE CO-AGONISTS OF THE GLUCAGON AND GLP-1 RECEPTORS” (Merck Sharp & Dohme LLC, priority 2019, published 2023).

Starred links: 1 amine or outer side, 2 acyl side, 3 side chain; linkers in the order of their positions; H or OH if unused. Positions of bridges follow the written chain, without caps; N, C: chain ends. Non-standard residues stand in square brackets, D forms with d. Residues, ends and D or L forms follow the SMILES beside them. Groups on a side chain read outwards from the residue. Triazole bridges read from a SMILES are 1,4-linked. *: point of attachment. Lys(N3) = [N-]=[N+]=NCCCC[C@H](N)C(=O)O; γGlu = O=C(O)[C@H](CCC(=O)[*:2])N[*:1]; Met(O2) = CS(=O)(=O)CC[C@H](N)C(=O)O; Palmitoyl = CCCCCCCCCCCCCCCC(=O)*; dPra = C#CC[C@@H](N)C(=O)O; Nle = CCCC[C@H](N)C(=O)O; Aib = CC(C)(N)C(=O)O

The target in one test is T1, human GLP1R (Homo sapiens, UniProt P43220).
T1 construct: expressed in transfected cells; grown under Blasticidin and Hygromycin selection
T1 sequence (P43220 24-463): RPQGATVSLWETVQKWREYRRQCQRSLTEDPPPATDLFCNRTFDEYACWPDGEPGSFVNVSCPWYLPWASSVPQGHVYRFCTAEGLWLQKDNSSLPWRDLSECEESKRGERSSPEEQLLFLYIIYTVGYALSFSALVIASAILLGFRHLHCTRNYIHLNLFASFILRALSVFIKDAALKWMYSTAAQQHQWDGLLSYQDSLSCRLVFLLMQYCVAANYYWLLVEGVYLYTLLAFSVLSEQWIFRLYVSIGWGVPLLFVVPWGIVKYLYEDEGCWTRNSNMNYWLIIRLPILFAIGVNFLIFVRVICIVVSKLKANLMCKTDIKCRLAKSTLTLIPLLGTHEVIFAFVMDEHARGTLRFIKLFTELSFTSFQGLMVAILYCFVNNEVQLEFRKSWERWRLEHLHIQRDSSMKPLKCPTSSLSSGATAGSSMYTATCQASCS
As to the kind of experiment: cAMP activity assay in cells expressing human GLP1R. The format is cell-based. To be noted: cAMP production, HitHunter cAMPXS, 1 hour; assay buffer with or without 20% human serum (not given). The procedure:
(§1) Activity of the peptides at the Glucagon receptor (GCGR) and GLP-1 receptor (GLP1R) was measured in a cAMP activity assay.
(§2) Peptides were dissolved in 100% DMSO and serially diluted to generate 10 point titrations. The peptide solutions were then transferred into 384-well assay plates (150 nL/well). Assay ready frozen cells expressing human GLP1R or human GCGR were suspended in growth media consisting of DMEM medium (GIBCO), 10% FBS (GIBCO), 1× NEAA(GIBCO), 1× P/S (GIBCO), 10 ug/ml Blasticidin (GIBCO) and 200 μg/mL Hygromycin (GIBCO). Cells were then diluted in assay buffer consisting of PBS (GIBCO), 7.5% BSA (Perkin Elmer), 100 μM RO 20-1724 (Sigma), with or without 20% human serum (MP Biomedical). The cell suspensions (15 μL) were then added to the assay plates containing the peptide solutions (30,000 cells/well for human GCGR; 10,000 cells/well for human GLP1R). The cells were incubated for 1 hour at room temperature in the dark. Production of cAMP was determined using HitHunter™ cAMPXS kits (DiscoverX) following manufacturer protocol. The plates were incubated for overnight at room temperature in the dark. Luminescence was measured using an EnVision Multilabel plate reader (Perkin Elmer). Native GLP-1 and Glucagon (Bachem) are used as control peptides. EC50 values were calculated using uses a 4 parameter logistic fit based on the Levenberg-Marquardt algorithm.
(cAMP levels reflect the balance of adenylyl cyclase and phosphodiesterase activity.)

The target in the next test is T2, human GCGR (Homo sapiens, UniProt P47871).
T2 construct: expressed in transfected cells; grown under Blasticidin and Hygromycin selection
T2 sequence (P47871 26-477): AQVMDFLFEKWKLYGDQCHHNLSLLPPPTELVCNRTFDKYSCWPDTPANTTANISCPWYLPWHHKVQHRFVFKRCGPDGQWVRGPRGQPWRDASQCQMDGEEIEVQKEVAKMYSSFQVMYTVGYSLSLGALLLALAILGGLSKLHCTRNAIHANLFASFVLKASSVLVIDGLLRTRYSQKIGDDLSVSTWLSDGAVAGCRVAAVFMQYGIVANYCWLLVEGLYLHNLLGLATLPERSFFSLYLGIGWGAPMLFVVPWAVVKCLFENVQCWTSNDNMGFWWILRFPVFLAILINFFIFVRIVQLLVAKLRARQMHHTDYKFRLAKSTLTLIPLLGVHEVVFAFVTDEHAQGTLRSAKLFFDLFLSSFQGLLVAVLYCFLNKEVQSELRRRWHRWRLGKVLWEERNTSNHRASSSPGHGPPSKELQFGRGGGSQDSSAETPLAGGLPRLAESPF
As to the kind of experiment: cAMP activity assay in cells expressing human GCGR. To be noted: ratio of human GCGR EC50 to human GLP1R EC50. The format is cell-based. The procedure: as §1, §2

A word on the EC50: it is the concentration giving half of the maximal effect. A lower EC50 goes with higher potency in that assay. In turn, `CCCCCCCCCCCCCCCC(=O)N[C@@H](CCC(=O)N[C@@H](CCC(=O)NCCCC[C@H](NC(=O)[C@H](CC(=O)O)NC(=O)[C@H](CO)NC(=O)[C@@H](NC(=O)[C@H](Cc1ccccc1)NC(=O)[C@@H](NC(=O)CNC(=O)[C@H](CCC(N)=O)NC(=O)[C@@H](CO)NC(=O)[C@@H](N)Cc1c[nH]cn1)[C@@H](C)O)[C@@H](C)O)C(=O)N[C@@H](CO)C(=O)N[C@@H](CCCCN)C(=O)N[C@@H](Cc1ccc(O)cc1)C(=O)N[C@@H](CC(C)C)C(=O)N[C@@H](CC(=O)O)C(=O)N[C@@H](CCC(=O)O)C(=O)N[C@@H](CCCNC(=N)N)C(=O)N[C@@H](C)C(=O)N[C@@H](C)C(=O)N[C@@H]1Cc2cn(nn2)CCCC[C@@H](C(=O)N[C@@H](Cc2c[nH]c3ccccc23)C(=O)N[C@@H](CC(C)C)C(=O)N[C@@H](CC(C)C)C(=O)N[C@@H](CC(=O)O)C(=O)N[C@H](C(N)=O)[C@@H](C)O)NC(=O)[C@H](C(C)C)NC(=O)[C@H](Cc2ccccc2)NC(=O)[C@H](CC(=O)O)NC1=O)C(=O)O)C(=O)O` [compound 7] (H-H[dS]QGTFTSDK([γGlu-γGlu-Palmitoyl])SKYLDERAA[dPra]DFV[Lys(N3)]WLLDT-NH2; triazole 20-24) gave an EC50 on human GLP1R of 0.042 nM. In addition, the “hGCGR/hGLP1R (hTone)” value at human GCGR came out at 0.95. The corresponding values for `CCCCCCCCCCCCCCCC(=O)N[C@@H](CCC(=O)N[C@@H](CCC(=O)NCCCC[C@H](NC(=O)[C@H](CC(=O)O)NC(=O)[C@H](CO)NC(=O)[C@@H](NC(=O)[C@H](Cc1ccccc1)NC(=O)[C@@H](NC(=O)CNC(=O)[C@H](CCC(N)=O)NC(=O)C(C)(C)NC(=O)[C@@H](N)Cc1c[nH]cn1)[C@@H](C)O)[C@@H](C)O)C(=O)N[C@@H](CO)C(=O)N[C@@H](CCCCN)C(=O)N[C@@H](Cc1ccc(O)cc1)C(=O)N[C@@H](CC(C)C)C(=O)N[C@@H](CC(=O)O)C(=O)N[C@@H]1Cc2cn(nn2)CCCC[C@@H](C(=O)N[C@@H](CC(=O)O)C(=O)N[C@@H](Cc2ccccc2)C(=O)N[C@H](C(=O)N[C@@H](CCC(N)=O)C(=O)N[C@@H](Cc2c[nH]c3ccccc23)C(=O)N[C@@H](CC(C)C)C(=O)N[C@@H](CCCC)C(=O)N[C@@H](CC(=O)O)C(=O)N[C@H](C(N)=O)[C@@H](C)O)C(C)C)NC(=O)[C@H](C)NC(=O)[C@H](C)NC(=O)[C@H](CCCNC(=N)N)NC1=O)C(=O)O)C(=O)O` [compound 16] (H-H[Aib]QGTFTSDK([γGlu-γGlu-Palmitoyl])SKYLD[dPra]RAA[Lys(N3)]DFVQWL[Nle]DT-NH2; triazole 16-20; N-terminus assumed) are 0.042 nM and 1.13. For `CCCCCCCCCCCCCCCC(=O)N[C@@H](CCC(=O)N[C@@H](CCC(=O)NCCCC[C@H](NC(=O)[C@H](CC(=O)O)NC(=O)[C@H](CO)NC(=O)[C@@H](NC(=O)[C@H](Cc1ccccc1)NC(=O)[C@@H](NC(=O)CNC(=O)[C@H](CCC(N)=O)NC(=O)C(C)(C)NC(=O)[C@@H](N)Cc1c[nH]cn1)[C@@H](C)O)[C@@H](C)O)C(=O)N[C@@H](CO)C(=O)N[C@@H](CCCCN)C(=O)N[C@@H](Cc1ccc(O)cc1)C(=O)N[C@@H](CC(C)C)C(=O)N[C@@H](CC(=O)O)C(=O)NC(C)(C)C(=O)N[C@@H](CCCNC(=N)N)C(=O)N[C@@H](C)C(=O)N[C@@H](C)C(=O)N[C@@H]1Cc2cn(nn2)CCCC[C@@H](C(=O)N[C@@H](Cc2c[nH]c3ccccc23)C(=O)N[C@@H](CC(C)C)C(=O)N[C@@H](CCS(C)(=O)=O)C(=O)N[C@@H](CC(=O)O)C(=O)N[C@H](C(=O)N[C@@H](CCCCN)C(=O)N[C@@H](CCC(N)=O)C(=O)O)[C@@H](C)O)NC(=O)[C@H](C(C)C)NC(=O)[C@H](Cc2ccccc2)NC(=O)[C@H](CC(=O)O)NC1=O)C(=O)O)C(=O)O` [compound 21] (H-H[Aib]QGTFTSDK([γGlu-γGlu-Palmitoyl])SKYLD[Aib]RAA[dPra]DFV[Lys(N3)]WL[Met(O2)]DTKQ-OH; triazole 20-24), the “hGCGR/hGLP1R (hTone)” value on human GCGR stood at 4.5. On the same count and under the same terms, as for `CCCCCCCCCCCCCCCC(=O)N[C@@H](CCC(=O)N[C@@H](CCC(=O)NCCCC[C@H](NC(=O)[C@H](CC(=O)O)NC(=O)[C@H](CO)NC(=O)[C@@H](NC(=O)[C@H](Cc1ccccc1)NC(=O)[C@@H](NC(=O)CNC(=O)[C@H](CCC(N)=O)NC(=O)[C@@H](CO)NC(=O)[C@@H](N)Cc1c[nH]cn1)[C@@H](C)O)[C@@H](C)O)C(=O)N[C@@H](CO)C(=O)N[C@@H](CCCCN)C(=O)N[C@@H](Cc1ccc(O)cc1)C(=O)N[C@@H](CC(C)C)C(=O)N[C@@H](CC(=O)O)C(=O)N[C@@H](C)C(=O)N[C@@H](CCCNC(=N)N)C(=O)N[C@@H](C)C(=O)N[C@@H](C)C(=O)N[C@@H](CCC(N)=O)C(=O)N[C@@H](CC(=O)O)C(=O)N[C@@H](Cc1ccccc1)C(=O)N[C@H](C(=O)N[C@H]1CCCCn2cc(nn2)C[C@H](C(=O)N[C@H](C(N)=O)[C@@H](C)O)NC(=O)[C@H](CC(C)C)NC(=O)[C@H](CC(C)C)NC(=O)[C@H](Cc2c[nH]c3ccccc23)NC1=O)C(C)C)C(=O)O)C(=O)O` [compound 24] (H-H[dS]QGTFTSDK([γGlu-γGlu-Palmitoyl])SKYLDARAAQDFV[Lys(N3)]WLL[dPra]T-NH2; triazole 24-28; N-terminus assumed), the figure is 0.54.
